Data reported in ChEMBL document CHEMBL3425451, “Novel synthetic bisbenzimidazole that targets angiogenesis in Ehrlich ascites carcinoma bearing mice” (Bioorg Med Chem Lett, 2015).
Calls of active or inactive are those of the source. No cut-off for these calls is given here.

Key:
HeLa [1] = experiment: Cytotoxicity against human HeLa cells by MTT assay
[2] = Cytotoxicity against human HCT116 cells by MTT assay; assay type: functional, cell-based; conditions: HCT-116
A549 = experiment: Cytotoxicity against human A549 cells by MTT assay; assay type: functional, cell-based
Vero = experiment: Cytotoxicity against African green monkey Vero cells by MTT assay; assay type: cell-based; conditions: Chlorocebus sabaeus
HeLa [3] = experiment: Induction of apoptosis in human HeLa cells assessed as accumulation at subG1 phase at 25 uM by propidium iodide staining based flow cytometry; assay type: functional, cell-based; conditions: TDE = time-dependent effect
EAT [4] = experiment: Inhibition of peritoneal angiogenesis of mouse EAT implanted in Swiss albino mouse at 10 mg/kg injected into peritoneum; assay type: functional, organism-based; parameters: dose 10 mg/kg
EAT [5] = experiment: […] of apoptosis in mouse EAT implanted in Swiss albino mouse assessed as induction of small blebs formation at 10 mg/kg injected into peritoneum by Giemsa staining based microscopy; assay type: functional, organism-based; parameters: dose 10 mg/kg
EAT [6] = experiment: […] of apoptosis in mouse EAT implanted in Swiss albino mouse assessed as induction of apoptotic bodies formation at 10 mg/kg injected into peritoneum by Giemsa staining based microscopy; assay type: functional, organism-based; parameters: dose 10 mg/kg
EAT [7] = experiment: Antitumor activity against mouse EAT implanted in Swiss albino mouse assessed as reduction in tumor cell viability at 10 mg/kg injected into peritoneum and measured on day 12 by trypan blue dye exclusion assay; assay type: functional, organism-based; parameters: dose 10 mg/kg
EAT [8] = experiment: Antitumor activity against mouse EAT implanted in Swiss albino mouse assessed as reduction in body weight at 10 mg/kg injected into peritoneum and measured on day 11; assay type: functional, organism-based; parameters: dose 10 mg/kg
EAT [9] = experiment: Antitumor activity against mouse EAT implanted in Swiss albino mouse assessed as reduction in ascites fluid volume at 10 mg/kg injected into peritoneum and measured on day 12; assay type: functional, organism-based; parameters: dose 10 mg/kg
[10] = Inhibition of VEGF production in mouse EAT implanted in Swiss albino mouse peritoneal cavity at 10 mg/kg injected into peritoneum by ELISA method (reference value: 2412 +/- 10 ng); assay type: functional
EAT [11] = experiment: (§1) Inhibition of peritoneal angiogenesis of mouse EAT implanted in Swiss albino mouse assessed as reduction in micro vessel density at 10 mg/kg injected into peritoneum by hematoxylin and eosin staining method; assay type: functional, organism-based; parameters: dose 10 mg/kg
[12] = as §1, with “density by measuring number of micro vessels per high power field” for “density”, “method (reference value: 54 +/- 6 vessels/high power field)” for “method”; assay type: functional
EAT [13] = experiment: […] of apoptosis in mouse EAT implanted in Swiss albino mouse assessed as induction of cell shrinkage at 10 mg/kg injected into peritoneum by Giemsa staining based microscopy; assay type: functional, organism-based; parameters: dose 10 mg/kg
EAT [14] = experiment: […] of apoptosis in mouse EAT implanted in Swiss albino mouse assessed as induction of DNA fragmentation at 10 mg/kg injected into peritoneum by ethidium bromide staining based electrophoresis method; assay type: functional, organism-based; parameters: dose 10 mg/kg

SMILES	IC50 (HeLa [1])	IC50 [2]	IC50 (A549)	IC50 (Vero)	other results
CCCc1nc2c(C)cc(-c3nc4ccccc4n3C)cc2n1S(=O)(=O)c1ccccc1Br	> 50 µM	–	–	–	–
CCCc1nc2c(C)cc(-c3nc4ccccc4n3C)cc2n1S(=O)(=O)c1ccc(C)cc1	20.1 µM	41.6 µM	> 50 µM	> 50 µM	–
CCCc1nc2c(C)cc(-c3nc4ccccc4n3C)cc2n1S(=O)(=O)c1ccc(Br)cc1	24.7 µM	49.3 µM	35.1 µM	> 50 µM	–
CCCc1nc2c(C)cc(-c3nc4ccccc4n3C)cc2n1S(=O)(=O)c1ccccc1	23.8 µM	> 50 µM	> 50 µM	> 50 µM	–
CCCc1nc2c(C)cc(-c3nc4ccccc4n3C)cc2n1S(=O)(=O)c1ccc(Cl)cc1	21.4 µM	36.8 µM	> 50 µM	> 50 µM	–
CCCc1nc2c(C)cc(-c3nc4ccccc4n3C)cc2n1S(=O)(=O)c1ccc(F)cc1	16.7 µM	19.9 µM	32.2 µM	> 50 µM	Activity (HeLa [3]): tde; inhibition (EAT [4]): Active; Activity (EAT [5]): Active; Activity (EAT [6]): Active; inhibition (EAT [7]): Active; inhibition (EAT [8]): Active; inhibition (EAT [9]): Active; Activity [10]: 225 ng; inhibition (EAT [11]): Active; Activity [12]: 8; Activity (EAT [13]): Active; Activity (EAT [14]): Active
CCCc1nc2c(C)cc(-c3nc4ccccc4n3C)cc2n1S(=O)(=O)c1ccccc1Cl	> 50 µM	–	–	–	–
CCCc1nc2c(C)cc(-c3nc4ccccc4n3C)cc2n1S(=O)(=O)c1cc(Cl)ccc1Cl	> 50 µM	–	–	–	–
CCCc1nc2c(C)cc(-c3nc4ccccc4n3C)cc2n1S(=O)(=O)c1ccc(OC)cc1	18.3 µM	19.1 µM	34.7 µM	> 50 µM	–
CCCc1nc2c(C)cc(-c3nc4ccccc4n3C)cc2n1S(=O)(=O)c1c(C)cc(C)cc1C	21 µM	29.9 µM	> 50 µM	> 50 µM	–
